Experimental findings from ChEMBL document CHEMBL1144798, “New chemotypes for cathepsin K inhibitors” (Bioorg Med Chem Lett, 2008) are described below.

Experiment [1] concerns the target T1, Cathepsin K (Homo sapiens, UniProt P43235).
T1 sequence (P43235 whole entry): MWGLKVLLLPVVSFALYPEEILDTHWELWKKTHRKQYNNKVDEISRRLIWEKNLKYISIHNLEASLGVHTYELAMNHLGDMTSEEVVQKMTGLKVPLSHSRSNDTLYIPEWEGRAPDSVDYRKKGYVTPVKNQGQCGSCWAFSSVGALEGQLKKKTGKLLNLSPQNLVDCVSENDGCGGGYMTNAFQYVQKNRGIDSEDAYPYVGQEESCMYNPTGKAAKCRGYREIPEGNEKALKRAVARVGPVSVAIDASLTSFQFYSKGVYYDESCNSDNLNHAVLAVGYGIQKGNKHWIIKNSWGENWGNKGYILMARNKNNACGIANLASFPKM
Briefly: Inhibition of human recombinant cathepsin K by fluorescence assay.

For experiment [2], the target named is Procathepsin L (Homo sapiens, UniProt P07711). Nature of the experiment: Inhibition of human recombinant cathepsin L by fluorescence assay.
Procathepsin L, sequence (P07711 whole entry): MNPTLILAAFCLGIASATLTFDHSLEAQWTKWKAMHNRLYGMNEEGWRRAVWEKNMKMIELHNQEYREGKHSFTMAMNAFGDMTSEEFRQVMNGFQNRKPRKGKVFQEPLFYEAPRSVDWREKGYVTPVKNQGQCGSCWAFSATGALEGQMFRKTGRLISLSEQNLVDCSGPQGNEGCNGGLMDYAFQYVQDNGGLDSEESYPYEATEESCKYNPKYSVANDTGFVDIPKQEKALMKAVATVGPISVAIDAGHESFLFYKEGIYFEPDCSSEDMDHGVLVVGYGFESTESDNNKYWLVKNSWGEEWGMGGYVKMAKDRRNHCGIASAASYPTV
Experiment [3] addresses Cathepsin S (Homo sapiens, UniProt P25774). Briefly: Inhibition of human recombinant cathepsin S by fluorescence assay.

Cathepsin S, sequence (P25774 whole entry): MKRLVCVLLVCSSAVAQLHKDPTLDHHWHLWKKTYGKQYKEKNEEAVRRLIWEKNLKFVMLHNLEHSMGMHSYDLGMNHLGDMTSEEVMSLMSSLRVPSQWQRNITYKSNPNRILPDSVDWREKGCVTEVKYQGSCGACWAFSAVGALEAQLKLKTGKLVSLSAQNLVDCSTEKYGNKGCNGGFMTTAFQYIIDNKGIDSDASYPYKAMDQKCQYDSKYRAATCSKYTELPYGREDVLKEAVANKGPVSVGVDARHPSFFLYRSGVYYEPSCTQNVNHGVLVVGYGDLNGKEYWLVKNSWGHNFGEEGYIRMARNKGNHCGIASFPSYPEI

The term IC50 denotes the point on the concentration scale where inhibition reaches its midpoint. Take `CC(C)(C)CN(Cc1ccc(C#CCN2CCC(N3CCCCC3)CC2)cc1)c1ccnc(C#N)n1`: the 50% inhibitory concentration (IC50) in experiment [1] is 3.6 nM; in experiment [2], > 1000 nM; in experiment [3], > 1000 nM.
Turning to `CC(C)(C)CN(Cc1ccc(C#CCN2CCCCC2)cc1)c1ccnc(C#N)n1`, the IC50 is 7.3 nM in experiment [1], > 1000 nM in experiment [2] and > 1000 nM in experiment [3].
For the compound `CC(C)(C)CN(Cc1ccc(I)cc1)c1ccnc(C#N)n1`, the results for the IC50 in experiment [1], in experiment [2] and in experiment [3] were 19 nM, > 1000 nM and > 1000 nM, respectively.
As for `CC(C)(C)CNc1nc(C#N)ncc1C#CCN1CCc2ccccc2C1`, the IC50 in experiment [1] came out at 3.2 nM; in experiment [2], 150 nM; in experiment [3] it was 840 nM.
In the same order, the values of `CC(C)(C)CN(Cc1ccc(Cn2cncn2)cc1)c1ccnc(C#N)n1` are 4.8 nM, > 1000 nM and > 1000 nM.
Regarding `CC(C)(C)CNc1nc(C#N)ncc1C#CCN1Cc2ccccc2C1`, the IC50 is 10 nM in experiment [1], > 1000 nM in experiment [2] and 920 nM in experiment [3].
In the same order, the values of `COc1ccc(S(=O)(=O)N2CCN(CC#Cc3cnc(C#N)nc3NCC(C)(C)C)CC2)cc1` are 7.1 nM, > 1000 nM and > 1000 nM.
On the same counts, the results for `CC(C)(C)CNc1nc(C#N)ncc1C#CCn1cnc(Cl)c1Cl` are 7.2 nM, 190 nM and 68 nM.
In the same order, the values of `CC(=O)N1CCN(CC#Cc2ccc(CN(CC(C)(C)C)c3ccnc(C#N)n3)cc2)CC1` are 6.4 nM, > 1000 nM and > 1000 nM.
For `CC(C)(C)CN(Cc1ccc(C#CCn2cncn2)cc1)c1ccnc(C#N)n1`, the half-inhibitory concentration (IC50) in experiment [1] is 8.6 nM; in experiment [2] it was > 1000 nM; in experiment [3], > 1000 nM.
For the compound `CC(C)(C)CN(Cc1ccccc1)c1ccnc(C#N)n1`, the IC50 in experiment [1] was 69 nM; in experiment [2], > 1000 nM; in experiment [3], > 1000 nM.
Consider `CN1CCN(CC#Cc2ccc(CN(CC(C)(C)C)c3ccnc(C#N)n3)cc2)CC1`, for which the results for the IC50 in experiment [1], in experiment [2] and in experiment [3] were 3.8 nM, > 1000 nM and > 1000 nM, respectively.
For the compound `CN1CCN(c2ccc(CC#Cc3cnc(C#N)nc3NCC(C)(C)C)cc2)CC1`, the IC50 in experiment [1] came out at 7.1 nM; in experiment [2], 980 nM; in experiment [3] it was 760 nM.
In the same order, the values of `CC(C)(C)CNc1nc(C#N)ncc1C#CCN1CCN(S(=O)(=O)CCCCl)CC1` are 3.7 nM, > 1000 nM and 800 nM.
On the same counts, the results for `CC(C)(C)CNc1nc(C#N)ncc1C#CCOc1cccnc1` are 8.6 nM, 1000 nM and 460 nM.
